Holding throughout (type): cell-based
One assay concerns Target C mRNA. Nature of the assay: Gene panel canonical junction qPCR assay, Target C CJ mRNA decrease. The settings on record: Homo sapiens, canonical junction qPCR, read-out: Target C IC50 (decrease in CJ mRNA levels). In short, it runs like this:
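A673 or K562 cells were treated with compound, and lysates underwent cDNA synthesis and qPCR with a CY5 5′-nuclease probe or primer spanning the canonical exon junction. ΔCt versus GAPDH, GUSB or PPIA was normalized to DMSO (2^(−ΔΔCt)), converted to percentage response and fitted four-parameter logistic for IC50.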
For orientation: In qPCR the cycle at which signal appears reflects the starting amount.

The subject of another assay is MYB mRNA. Nature of the assay: Splicing RT-qPCR assay, MYB canonical (CJ) and alternative (AJ) junction mRNA. Particulars: Homo sapiens, A673 or K562 cells, 24 hours; for IC50: decrease in canonical junction mRNA; for AC50: increase in alternative junction mRNA. The procedure, abridged:
(§1)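 Housekeeping-normalized RT-qPCR of canonical and alternative junctions in lysates of A673 or K562 cells exposed 24 h to compound (11 points, 3-fold steps, max 10 uM).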

Another assay has as its system HTT mRNA. Description: Splicing RT-qPCR assay, HTT canonical (CJ) and alternative (AJ) junction mRNA. Particulars: Homo sapiens, A673 or K562 cells, 24 hours; for IC50: decrease in canonical junction mRNA; for AC50: increase in alternative junction mRNA. In short, it runs like this: as §1

Regarding `Cc1cn2cc(NC(=O)c3ccc([C@@]45CCNCC4C5)c4nccnc34)cc(F)c2n1` (stereo in doubt) [Compound 248, 8-{3-azabicyclo[4.1.0]heptan-6-yl}-N-{8-fluoro-2-methylimidazo[1,2-a]pyridin-6-yl}quinoxaline-5-carboxamide 2,2,2-trifluoroacetate], the values for the IC50 with Target C mRNA, with MYB mRNA and in the assay on HTT mRNA were 1000 to 10000 nM, 100 to 1000 nM and 1000 to 10000 nM, respectively. Besides, the AC50 in the assay on MYB mRNA was 100 to 1000 nM; in the assay on HTT mRNA it was over 10000 nM.
For `Cc1cn2cc(NC(=O)c3ccc(N4CCNCC4)c4nccnc34)cc(F)c2n1` [Compound 111], the concentration for half-maximal inhibition (IC50) fell in the range of 1000 to 10000 nM in the assay with Target C mRNA, 100 to 1000 nM in the assay with MYB mRNA and 1000 to 10000 nM in the assay with HTT mRNA. For the same compound, the AC50 with MYB mRNA was 100 to 1000 nM; in the assay on HTT mRNA, 1000 to 10000 nM.
In the case of `Cc1cn2nc(NC(=O)c3ccc(C4CCNCC4)c4ccnnc34)cc(C)c2n1` [Compound 113], the IC50 in the assay on Target C mRNA, with MYB mRNA and in the assay on HTT mRNA was 1000 to 10000 nM each time. Also, the figures for the AC50 in the assay with MYB mRNA and in the assay on HTT mRNA were 100 to 1000 nM and 1000 to 10000 nM, respectively.
As to `Cn1cc2ccc(NC(=O)c3ccc(N4CCNCC4)c4ccnnc34)cc2n1` [Compound 115], the IC50 with Target C mRNA, in the assay with MYB mRNA and in the assay with HTT mRNA was over 10000 nM in each case. The AC50 with MYB mRNA and in the assay on HTT mRNA was over 10000 nM in each case.
For `Cn1cc2c(F)cc(NC(=O)c3ccc(N4CCNCC4)c4ccnnc34)cc2n1` [Compound 116], the IC50 in the assay with Target C mRNA, with MYB mRNA and in the assay with HTT mRNA was over 10000 nM throughout. Moreover, the AC50 in the assay on MYB mRNA and in the assay with HTT mRNA was over 10000 nM throughout.
Turning to `Cc1nc2c(F)cc(NC(=O)c3ccc(N4CCNCC4)c4ccnnc34)cc2s1` [Compound 118], the IC50 with Target C mRNA, in the assay with MYB mRNA and with HTT mRNA was 100 to 1000 nM each time. Also, the AC50 in the assay on MYB mRNA and with HTT mRNA was 100 to 1000 nM each time.
Consider `Cc1cn2cc(NC(=O)c3ccc(N4CCNCC4)c4ccnnc34)c(C)cc2n1` [Compound 119], for which the half-maximal inhibitory concentration (IC50) in the assay with Target C mRNA, in the assay on MYB mRNA and in the assay with HTT mRNA was 1000 to 10000 nM in each case. Also, the AC50 in the assay on MYB mRNA and with HTT mRNA was 1000 to 10000 nM each time.
As for `Cc1cn2cc(NC(=O)c3ccc(N4CCNCC4)c4ccnnc34)ncc2n1` [Compound 120], the IC50 was over 10000 nM in the assay on Target C mRNA, 100 to 1000 nM in the assay on MYB mRNA and over 10000 nM in the assay with HTT mRNA. Besides, the AC50 with MYB mRNA is 100 to 1000 nM; with HTT mRNA, over 10000 nM.
With `CNC1CCN(c2ccc(C(=O)Nc3cc(F)c4nc(C)cn4c3)c3nc(OCCOC)ccc23)C1` (stereo not shown) [Compound 234], the IC50 lay within 1000 to 10000 nM in the assay on Target C mRNA, 100 to 1000 nM in the assay on MYB mRNA and 1000 to 10000 nM in the assay on HTT mRNA. The AC50 in the assay with MYB mRNA lay in the range of 100 to 1000 nM; in the assay on HTT mRNA, 1000 to 10000 nM.
Regarding `CN[C@@H]1CCN(c2ccc(C(=O)Nc3cc(F)c4nc(C)cn4c3)c3nnccc23)C1` [Compound 238, (R)—N-(8-fluoro-2-methylimidazo[1,2-a]pyridin-6-yl)-5-(3-(methylamino)pyrrolidin-1-yl)cinnoline-8-carboxamide], the IC50 is 1000 to 10000 nM in the assay on Target C mRNA, under 100 nM with MYB mRNA and 1000 to 10000 nM in the assay with HTT mRNA. The AC50 was under 100 nM with MYB mRNA and 1000 to 10000 nM in the assay on HTT mRNA.
Take `CN[C@H]1CCN(c2ccc(C(=O)Nc3cc(F)c4nc(C)cn4c3)c3nnccc23)C1` [Compound 239, (S)—N-(8-fluoro-2-methylimidazo[1,2-a]pyridin-6-yl)-5-(3-(methylamino)pyrrolidin-1-yl)cinnoline-8-carboxamide]: the IC50 in the assay with Target C mRNA is 1000 to 10000 nM; in the assay with MYB mRNA it was under 100 nM; with HTT mRNA it was 1000 to 10000 nM. In addition, the AC50 with MYB mRNA fell in the range of 100 to 1000 nM; in the assay on HTT mRNA, 1000 to 10000 nM.
Regarding `Cc1cn2cc(NC(=O)c3ccc(C4=CCNCC4)c4nccnc34)cc(F)c2n1` [Compound 240, N-{8-fluoro-2-methylimidazo[1,2-a]pyridin-6-yl}-8-(1,2,3,6-tetrahydropyridin-4-yl)quinoxaline-5-carboxamide], the IC50 in the assay with Target C mRNA is 100 to 1000 nM; in the assay with MYB mRNA, under 100 nM; in the assay on HTT mRNA, under 100 nM. Further, the AC50 with MYB mRNA and with HTT mRNA was 100 to 1000 nM each time.
As for `Cc1cn2cc(NC(=O)c3ccc(N4CC[C@@H](N(C)C)C4)c4nccnc34)cc(F)c2n1` [Compound 242, 8-[(3R)-3-(dimethylamino)pyrrolidin-1-yl]-N-{8-fluoro-2-methylimidazo[1,2-a]pyridin-6-yl}quinoxaline-5-carboxamide], the IC50 in the assay with Target C mRNA is over 10000 nM; in the assay with MYB mRNA, 100 to 1000 nM; with HTT mRNA, over 10000 nM. The AC50 in the assay with MYB mRNA was 1000 to 10000 nM; in the assay on HTT mRNA, over 10000 nM.
Regarding `COc1cnc2c(N3CC[C@@H](N(C)C)C3)ccc(C(=O)Nc3cc(F)c4nc(C)cn4c3)c2n1` [Compound 244, 8-[(3R)-3-(dimethylamino)pyrrolidin-1-yl]-N-{8-fluoro-2-methylimidazo[1,2-a]pyridin-6-yl}-3-methoxyquinoxaline-5-carboxamide], the IC50 in the assay with Target C mRNA was 100 to 1000 nM; in the assay on MYB mRNA, under 100 nM; in the assay with HTT mRNA, 100 to 1000 nM. In addition, the AC50 in the assay with MYB mRNA is under 100 nM; with HTT mRNA it was 100 to 1000 nM.
Consider `Cc1cn2cc(NC(=O)c3ccc([C@H]4CCNC4)c4nccnc34)cc(F)c2n1` [Compound 246], for which the IC50 in the assay with Target C mRNA is over 10000 nM; in the assay with MYB mRNA, 100 to 1000 nM; in the assay with HTT mRNA, 1000 to 10000 nM. The half-maximal activity concentration (AC50) with MYB mRNA was in the range of 100 to 1000 nM; in the assay with HTT mRNA, 1000 to 10000 nM.
Turning to `Cc1cn2cc(NC(=O)c3ccc(N4CCN[C@@H](C(C)C)C4)c4nccnc34)cc(F)c2n1` [Compound 250, N-{8-fluoro-2-methylimidazo[1,2-a]pyridin-6-yl}-8-[(3S)-3-isopropylpiperazin-1-yl]quinoxaline-5-carboxamide], the IC50 with Target C mRNA is over 10000 nM; in the assay on MYB mRNA it was 100 to 1000 nM; in the assay on HTT mRNA it was over 10000 nM. The AC50 in the assay with MYB mRNA is 1000 to 10000 nM; with HTT mRNA, over 10000 nM.
Turning to `Cc1cn2cc(NC(=O)c3ccc(N4CCN[C@@H](C5CC5)C4)c4nccnc34)cc(F)c2n1` [Compound 252, 8-[(3S)-3-cyclopropylpiperazin-1-yl]-N-{8-fluoro-2-methylimidazo[1,2-a]pyridin-6-yl}quinoxaline-5-carboxamide], the IC50 in the assay on Target C mRNA is over 10000 nM; with MYB mRNA, 100 to 1000 nM; with HTT mRNA, over 10000 nM. Moreover, the results for the AC50 with MYB mRNA and in the assay on HTT mRNA were 100 to 1000 nM and over 10000 nM, respectively.
Turning to `Cc1cn2cc(NC(=O)c3ccc(N4CCN[C@H](C5CC5)C4)c4nccnc34)cc(F)c2n1` [Compound 253, 8-[(3R)-3-cyclopropylpiperazin-1-yl]-N-{8-fluoro-2-methylimidazo[1,2-a]pyridin-6-yl}quinoxaline-5-carboxamide], the IC50 was over 10000 nM in the assay on Target C mRNA, under 100 nM with MYB mRNA and 1000 to 10000 nM in the assay on HTT mRNA. Further, the AC50 in the assay with MYB mRNA was under 100 nM; with HTT mRNA, 1000 to 10000 nM.
On to `Cc1cn2cc(NC(=O)c3ccc(N4CCN5CCOC[C@@H]5C4)c4nccnc34)cc(F)c2n1` [Compound 255, (S)—N-(8-fluoro-2-methylimidazo[1,2-a]pyridin-6-yl)-8-(hexahydropyrazino[2,1-c][1,4]oxazin-8(1H)-yl)quinoxaline-5-carboxamide], for which the IC50 in the assay with Target C mRNA, with MYB mRNA and in the assay with HTT mRNA was 100 to 1000 nM in each case. The AC50 in the assay with MYB mRNA and in the assay with HTT mRNA was 100 to 1000 nM each time.
For the compound `Cc1cn2cc(NC(=O)c3ccc(N4CCN5CCOC[C@H]5C4)c4nccnc34)cc(F)c2n1` [Compound 256, (R)—N-(8-fluoro-2-methylimidazo[1,2-a]pyridin-6-yl)-8-(hexahydropyrazino[2,1-c][1,4]oxazin-8(1H)-yl)quinoxaline-5-carboxamide], the IC50 with Target C mRNA, in the assay on MYB mRNA and in the assay on HTT mRNA was 1000 to 10000 nM throughout. The AC50 with MYB mRNA and in the assay on HTT mRNA was 1000 to 10000 nM throughout.
For the compound `Cc1cn2cc(NC(=O)c3ccc(N4CC(C)NC(C)C4)c4nc(C)c(C)nc34)cc(F)c2n1` (stereo not shown) [Compound 257], the IC50 with Target C mRNA fell in the range of 1000 to 10000 nM; in the assay with MYB mRNA it was 100 to 1000 nM; in the assay on HTT mRNA, 1000 to 10000 nM. Further, the AC50 with MYB mRNA and in the assay on HTT mRNA was 1000 to 10000 nM each time.
For the compound `Cc1cn2cc(NC(=O)c3ccc(N4CCC(NC5CC5)CC4)c4nccnc34)cc(F)c2n1` [Compound 258, 8-(4-(cyclopropylamino)piperidin-1-yl)-N-(8-fluoro-2-methylimidazo[1,2-a]pyridin-6-yl)quinoxaline-5-carboxamide], the IC50 in the assay on Target C mRNA, in the assay with MYB mRNA and in the assay with HTT mRNA was 100 to 1000 nM each time. Besides, the AC50 in the assay with MYB mRNA and with HTT mRNA was 100 to 1000 nM in each case.
In the case of `Cc1cn2cc(NC(=O)c3ccc(N4CCC(NC5CC5)CC4)c4ccnnc34)cc(F)c2n1` [Compound 259, 5-[4-(cyclopropylamino)piperidin-1-yl]-N-{8-fluoro-2-methylimidazo[1,2-a]pyridin-6-yl} cinnoline-8-carboxamide], the IC50 is 1000 to 10000 nM in the assay on Target C mRNA, under 100 nM with MYB mRNA and 100 to 1000 nM with HTT mRNA. The values for the AC50 in the assay on MYB mRNA and in the assay on HTT mRNA were under 100 nM and 100 to 1000 nM, respectively.

One may read the IC50 as the concentration that gives 50% inhibition. As a reminder, the AC50 is the concentration giving half of the maximal activity seen.

The values above are taken from patent US20240409536A1, “COMPOUNDS AND METHODS FOR MODULATING SPLICING” (REMIX THERAPEUTICS INC., priority 2021, published 2024).
